According to patent US11077194B2, “Nitric oxide releasing pharmaceutical compositions” (Novan, Inc., priority 2012, dated 2021):
Marks after values point to notes of the source that are not given here.

Tested on: oxazolone-induced ear swelling
Assay: Oxazolone-induced ear swelling assay (model of allergic contact dermatitis)
Assay type: in vivo, BALB/c mice
Settings: TOP
Description: Groups of 5 BALB/c male mice weighing 22±2 g were used. The animals were sensitized by application of oxazolone (100 μL, 1.5% in acetone) to their preshaved abdominal surface. Seven days later, test substances (20 mg/ear) and vehicle (20 μL/ear) were applied topically to the anterior and posterior surfaces of the right ear 30 min before and 15 min after oxazolone (1%, 20 μL/ear) challenge. Ear swelling was measured with a Dyer model micrometer gauge at 24 hours after oxazolone challenge as an index of inflammation. Ear edema was calculated by subtracting the thickness of the left ear (normal control) from the right ear (treated ear). Percent inhibition was calculated according to the formula: (Ic−It)/Ic×100, where Ic and It refers to increase of ear thickness (mm) in control and treated mice, respectively. One-way ANOVA and Dunnett's test were used to determine statistical significance between vehicle control and treated groups. Significance is set at P<0.05.
Test articles (0.2% and 2% Nitricil™ NVN1 Ointment) described in Example 6 were evaluated for possible anti-inflammatory activity in the oxazolone-induced ear swelling assay in BALB/c mice, a model of allergic contact dermatitis. Test substances and vehicles were each administered topically (TOP) at 30 minutes before and 15 minutes after challenge with the second application of oxazolone.
The test system used was a 7-day oxazolone-induced ear swelling assay. Oxazolone-induced ear swelling is useful as a model of inflammation. […] Ear swelling was measured with a Dyer model micrometer gauge at 24 hours after oxazolone challenge as an index of inflammation. Ear edema was calculated by subtracting the thickness of the left ear (normal control) from the right ear (treated ear) (Table 18). […]
Percent inhibition was calculated according to the formula: (Ic−It)/Ic×100, where Ic and It refer to increase of ear thickness (mm) in control and treated mice, respectively. […]

C[C@@H]1C[C@H]2[C@@H]3CCC4=CC(=O)C=C[C@]4(C)[C@@]3(F)[C@@H](O)C[C@]2(C)[C@@]1(O)C(=O)CO [Dexamethasone]
Ear Swelling % Inhibition (vs. Vehicle A, acetone/ethanol 1/1) (Example 7 study, ointments 20 mg/ear × 2, dexamethasone 0.3 mg/ear × 2, 24 hours after challenge): 85* % | % inhibition of oxazolone-induced ear swelling vs acetone/ethanol vehicle (Example 9 study, ointments 20 mg/ear × 2, dexamethasone 0.1 mg/ear × 2): 86% | Net Swelling on Right Ear (Mean ± SEM) (Example 9 study, ointments 20 mg/ear × 2, dexamethasone 0.1 mg/ear × 2, 24 hours after challenge): 3.2 ± 0.4 × 0.01 mm
